Data taken from ChEMBL document CHEMBL1137440, “Kinesin spindle protein (KSP) inhibitors. Part 6: Design and synthesis of 3,5-diaryl-4,5-dihydropyrazole amides as potent inhibitors of the mitotic kinesin KSP” (Bioorg Med Chem Lett, 2007).
Activity calls are given as the source filed them. The rule behind the calls is not given here.

How the values were obtained:
[1] = organism: Canis familiaris; test: Induction of drug-induced QTc prolongation in dog cardiovascular model at 40 uM; type: functional, organism-based; settings: Canis lupus familiaris, Heart
[2] = test system: Plasma; test: Drug level in A2780 cell bearing mouse plasma at 3 mg/kg, po; type: functional, organism-based; parameters: dose 3 mg/kg
[3] = test system: A2780; test: Mitotic arrest in A2780 cells bearing mouse at 3 mg/kg after 22 hrs by phospho-Histone immunohistochemistry assay; type: functional, organism-based; parameters: dose 3 mg/kg
[4] = test system: Plasma; test: Protein binding in mouse plasma; type: functional, cell-free
[5] = test system: Plasma; test: Protein binding in human plasma; type: functional, cell-free
[6] = organism: Canis familiaris; test: Induction of drug-induced QTc prolongation in dog cardiovascular model at less than 10 uM; type: functional, organism-based; settings: Canis lupus familiaris; Heart
[7] = test system: Plasma; test: Drug level in A2780 cells bearing mouse plasma, po; type: functional

CC(=O)N1N=C(c2cc(F)ccc2F)C[C@@]1(C[C@H](F)CN)c1ccccc1
Activity [1]: inactive | Cp [2]: 38 nM | Activity [3]: Active

CC(=O)N1CCN(CCC[C@@]2(c3ccccc3)CC(c3cc(F)ccc3F)=NN2C(C)=O)CC1
PPB [4]: 92% | PPB [5]: 91% | Activity [6]: Active | Cp [7]: 56 nM
